Laboratory results published in paper PMC9742383, “From tryptamine to the discovery of efficient multi-target directed ligands against cholinesterase-associated neurodegenerative disorders” (Frontiers in Pharmacology, 2022).
Read-outs that look alike come from different tables or passages of the source.

What was measured:
[1] = molecular target: BuChE (Equus caballus, UniProt P81908); assay: Ellman colorimetric assay; format: biochemical; parameters: gene BCHE; native enzyme from equine serum, purchased from Sigma-Aldrich
BuChE, sequence (P81908 whole entry): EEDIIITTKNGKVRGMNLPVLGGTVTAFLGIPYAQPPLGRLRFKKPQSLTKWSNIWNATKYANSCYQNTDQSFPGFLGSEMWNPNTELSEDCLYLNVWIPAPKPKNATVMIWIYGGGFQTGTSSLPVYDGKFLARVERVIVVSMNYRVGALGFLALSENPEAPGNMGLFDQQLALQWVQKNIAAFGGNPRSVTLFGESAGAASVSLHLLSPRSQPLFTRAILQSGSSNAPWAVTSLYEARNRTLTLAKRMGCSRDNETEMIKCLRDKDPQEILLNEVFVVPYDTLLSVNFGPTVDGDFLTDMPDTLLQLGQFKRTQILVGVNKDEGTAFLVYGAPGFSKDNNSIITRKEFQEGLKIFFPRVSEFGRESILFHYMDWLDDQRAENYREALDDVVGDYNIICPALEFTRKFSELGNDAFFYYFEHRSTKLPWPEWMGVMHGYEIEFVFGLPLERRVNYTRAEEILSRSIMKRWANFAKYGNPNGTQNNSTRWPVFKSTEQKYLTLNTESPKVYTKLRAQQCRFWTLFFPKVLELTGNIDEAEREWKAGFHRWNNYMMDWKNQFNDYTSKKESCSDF

[2] = molecular target: T1, AChE (Electrophorus electricus, UniProt O42275); assay: Ellman colorimetric assay; format: biochemical
T1 construct: native enzyme, Type V-S lyophilized powder, Sigma-Aldrich
T1 sequence (O42275 24-633): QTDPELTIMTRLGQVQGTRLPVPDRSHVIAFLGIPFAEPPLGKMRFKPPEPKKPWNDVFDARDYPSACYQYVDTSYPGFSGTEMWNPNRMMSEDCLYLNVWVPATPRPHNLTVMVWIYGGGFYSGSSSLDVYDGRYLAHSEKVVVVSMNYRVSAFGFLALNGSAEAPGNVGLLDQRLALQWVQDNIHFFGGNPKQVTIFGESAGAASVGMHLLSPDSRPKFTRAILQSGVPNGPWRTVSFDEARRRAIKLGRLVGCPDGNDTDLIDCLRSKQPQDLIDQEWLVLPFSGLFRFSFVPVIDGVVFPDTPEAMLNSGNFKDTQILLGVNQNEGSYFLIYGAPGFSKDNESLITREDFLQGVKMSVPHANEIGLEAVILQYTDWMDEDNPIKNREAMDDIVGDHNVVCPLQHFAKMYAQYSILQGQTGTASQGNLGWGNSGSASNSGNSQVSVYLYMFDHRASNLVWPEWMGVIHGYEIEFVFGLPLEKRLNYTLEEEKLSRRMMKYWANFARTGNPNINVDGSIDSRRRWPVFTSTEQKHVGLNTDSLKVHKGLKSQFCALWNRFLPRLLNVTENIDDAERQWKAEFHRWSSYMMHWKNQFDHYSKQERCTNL

[3] = in vitro; parameters: MTT cytotoxicity, absorbance at 570 nm, HT-22 mouse hippocampal neuronal cells; details: mouse, read-out: IC50 ± SD / HT-22 ^a
Experimental: The cell lines present in this study were purchased from the China Center for Type Collection (CCTCC, China). For cytotoxicity assay, HT-22, BV2, SH-SY5Y, HepG2, and LO2 cells were incubated in 96-well plates at the density of 5 × 10³ per well. After incubation for 12 h at 37°C, the tested compounds with the required concentrations were added to the corresponding wells and continuously incubated for 24 h at 37°C. Then, the prepared MTT (3-[4,5-dimethyl-2-thiazolyl]-2,5-diphenyl-2H-tetrazolium bromide) solution was added to each well and co-incubated for another 4 h at 37°C. Then, the supernatant was removed, and 100 μl DMSO was added to each well. The OD value of each well was detected at 570 nm using a microplate reader (Bio-Rad Laboratories, CA, United States). The IC50 values were calculated using IBM SPSS Statistics 25.0 software. All experiments were performed in triplicate, and the results were shown as the mean ± SD. In order to explore the applicability of the synthesized CTDs in neurological diseases, the neuronal cytotoxicity of the synthesized compounds was evaluated on mouse hippocampal neuronal cell line HT-22. […] In view of these CTDs endowed strong inhibition efficacy on BuChE, we preliminarily evaluated their safety range by comparing their IC50 values on cytotoxicity and BuChE inhibitory activity. […] Therefore, the series of compounds with dibenzyl groups, especially compounds bearing ring carbon alkyl chains (2f-2h) and tertiary amine residues (2j-2u) with little cytotoxicity on HT-22, can be considered as potential lead building blocks for further structure optimization to develop novel effective agents against neurological diseases.

[4] = in vitro; parameters: species or system LO2, HepG2; MTT cytotoxicity, absorbance at 570 nm; details: human, sh-sy5y; read-out: ^a IC50 ± SD (μM) / SH-SY5Y
Experimental: The cell lines present in this study were purchased from the China Center for Type Collection (CCTCC, China). For cytotoxicity assay, HT-22, BV2, SH-SY5Y, HepG2, and LO2 cells were incubated in 96-well plates at the density of 5 × 10³ per well. After incubation for 12 h at 37°C, the tested compounds with the required concentrations were added to the corresponding wells and continuously incubated for 24 h at 37°C. Then, the prepared MTT (3-[4,5-dimethyl-2-thiazolyl]-2,5-diphenyl-2H-tetrazolium bromide) solution was added to each well and co-incubated for another 4 h at 37°C. Then, the supernatant was removed, and 100 μl DMSO was added to each well. The OD value of each well was detected at 570 nm using a microplate reader (Bio-Rad Laboratories, CA, United States). The IC50 values were calculated using IBM SPSS Statistics 25.0 software. All experiments were performed in triplicate, and the results were shown as the mean ± SD. In order to further evaluate the applicability of the compounds with dibenzyl groups for neurological diseases, we also tested the cytotoxicity of the selected compounds (2f, 2h, 2j, 2m, 2o-2r, 2t, and 2u) bearing little toxicity on HT-22 cells, microglia cell line BV2, and human neuroblastoma cell line SH-SY5Y, which are widely used in the study of neurological diseases. […] In view of some carbamate-based ChE inhibitors reported to be hepatotoxic, we further performed the preliminary evaluation of the hepatotoxicity of the selected compounds on human normal liver cell line LO2 and human hepatocellular carcinoma cell line HepG2.

[5] = read-out: IC50 ± SD ^a / BuChE ^a
[6] = read-out: IC50 ± SD ^a / AChE ^a
[7] = ht-22 hippocampal neuronal cells

Structure (SMILES) | IC50 ([1]; read-out: IC50 ± SD / BuChE ^a) | IC50 ([2]; read-out: IC50 ± SD / AChE ^a) | CC50 at 24 h ([3]; ht-22) | CC50 at 24 h [4] | IC50 [1, 5] | IC50 [2, 6] | CC50 at 24 h [3, 7]
CCCNC(=O)Oc1ccc2[nH]cc(CCN(Cc3ccccc3)Cc3ccccc3)c2c1 [2a, 3-(2-(dibenzylamino)ethyl)-1H-indol-5-yl propylcarbamate] | 0.0332 ± 0.00499 µM | > 100 µM | 51.58 ± 0.05 µM |  |  |  | 
CCCCNC(=O)Oc1ccc2[nH]cc(CCN(Cc3ccccc3)Cc3ccccc3)c2c1 [2b, 3-(2-(dibenzylamino)ethyl)-1H-indol-5-yl butylcarbamate] | 0.003 ± 0.00021 µM | > 100 µM | 40.6 ± 1.12 µM |  |  |  | 
CCCCCCNC(=O)Oc1ccc2[nH]cc(CCN(Cc3ccccc3)Cc3ccccc3)c2c1 [2d, 3-(2-(dibenzylamino)ethyl)-1H-indol-5-yl hexylcarbamate] | 0.00147 ± 0.00015 µM | > 100 µM | 37.6 ± 1.92 µM |  |  |  | 
O=C(NC1CCCC1)Oc1ccc2[nH]cc(CCN(Cc3ccccc3)Cc3ccccc3)c2c1 [2g, 3-(2-(dibenzylamino)ethyl)-1H-indol-5-yl cyclopentylcarbamate] | 0.0337 ± 0.00162 µM | > 100 µM | 57.3 ± 4.3 µM |  |  |  | 
O=C(Nc1ccccc1)Oc1ccc2[nH]cc(CCN(Cc3ccccc3)Cc3ccccc3)c2c1 [2i, 3-(2-(dibenzylamino)ethyl)-1H-indol-5-yl phenylcarbamate] | 0.0558 ± 0.00314 µM | > 100 µM | 41.8 ± 2.31 µM |  |  |  | 
CCN(CC)C(=O)Oc1ccc2[nH]cc(CCN(Cc3ccccc3)Cc3ccccc3)c2c1 [2k, 3-(2-(dibenzylamino)ethyl)-1H-indol-5-yl diethylcarbamate] | 0.3209 ± 0.00206 µM | > 100 µM | 54.68 ± 0.42 µM |  |  |  | 
CCCN(CCC)C(=O)Oc1ccc2[nH]cc(CCN(Cc3ccccc3)Cc3ccccc3)c2c1 [2l, 3-(2-(dibenzylamino)ethyl)-1H-indol-5-yl dipropylcarbamate] | 0.0159 ± 0.00055 µM | > 100 µM | 38.6 ± 0.9 µM |  |  |  | 
O=C(Oc1ccc2[nH]cc(CCN(Cc3ccccc3)Cc3ccccc3)c2c1)N(c1ccccc1)c1ccccc1 [2n, 3-(2-(dibenzylamino)ethyl)-1H-indol-5-yl diphenylcarbamate] | 0.2623 ± 0.00248 µM | > 100 µM | > 100 µM |  |  |  | 
CON(C)C(=O)Oc1ccc2[nH]cc(CCN(Cc3ccccc3)Cc3ccccc3)c2c1 [2o, 3-(2-(dibenzylamino)ethyl)-1H-indol-5-yl methoxy(methyl)carbamate] | 0.00865 ± 0.00034 µM | 2.93 µM | 72.1 ± 2.23 µM | > 100 µM |  |  | 
O=C(Oc1ccc2[nH]cc(CCN(Cc3ccccc3)Cc3ccccc3)c2c1)N1CCCCC1 [2s, 3-(2-(dibenzylamino)ethyl)-1H-indol-5-yl piperidine-1-carboxylate] | 0.0334 ± 0.00521 µM | > 100 µM | 42.7 ± 2.09 µM |  |  |  | 
CCCNC(=O)Oc1ccc2[nH]cc(CCNCc3ccccc3)c2c1 [3a, 3-(2-(benzylamino)ethyl)-1H-indol-5-yl propylcarbamate] |  |  |  |  | 0.0182 ± 0.00068 µM | 1.95 µM | 31.3 ± 2.32 µM
CCCCNC(=O)Oc1ccc2[nH]cc(CCNCc3ccccc3)c2c1 [3b, 3-(2-(benzylamino)ethyl)-1H-indol-5-yl butylcarbamate] |  |  |  |  | 0.0237 ± 0.00118 µM | 1.69 µM | 18.5 ± 0.81 µM
CCCCCCNC(=O)Oc1ccc2[nH]cc(CCNCc3ccccc3)c2c1 [3d, 3-(2-(benzylamino)ethyl)-1H-indol-5-yl hexylcarbamate] |  |  |  |  | 0.019 ± 0.00029 µM | 2.44 µM | 16.3 ± 1.19 µM
CCCCCCCNC(=O)Oc1ccc2[nH]cc(CCNCc3ccccc3)c2c1 [3e, 3-(2-(benzylamino)ethyl)-1H-indol-5-yl heptylcarbamate] |  |  |  |  | 0.0336 ± 0.00164 µM | 1.13 µM | 6.49 ± 0.34 µM
O=C(NC1CCCC1)Oc1ccc2[nH]cc(CCNCc3ccccc3)c2c1 [3g, 3-(2-(benzylamino)ethyl)-1H-indol-5-yl cyclopentylcarbamate] |  |  |  |  | 0.0136 ± 0.0007 µM | 27.2 µM | 18.2 ± 0.95 µM
O=C(NC1CCCCC1)Oc1ccc2[nH]cc(CCNCc3ccccc3)c2c1 [3h, 3-(2-(benzylamino)ethyl)-1H-indol-5-yl cyclohexylcarbamate] |  |  |  |  | 0.0435 ± 0.00335 µM | > 100 µM | 11.6 ± 0.34 µM
O=C(Nc1ccccc1)Oc1ccc2[nH]cc(CCNCc3ccccc3)c2c1 [3i, 3-(2-(benzylamino)ethyl)-1H-indol-5-yl phenylcarbamate] |  |  |  |  | 0.11 ± 0.00522 µM | 23.3 µM | 18.4 ± 0.43 µM
CN(C)C(=O)Oc1ccc2[nH]cc(CCNCc3ccccc3)c2c1 [3j, 3-(2-(benzylamino)ethyl)-1H-indol-5-yl dimethylcarbamate] |  |  |  |  | 0.132 ± 0.00359 µM | 1.91 µM | 21.7 ± 0.72 µM
CCN(CC)C(=O)Oc1ccc2[nH]cc(CCNCc3ccccc3)c2c1 [3k, 3-(2-(benzylamino)ethyl)-1H-indol-5-yl diethylcarbamate] |  |  |  |  | 0.0725 ± 0.00655 µM | > 100 µM | 16 ± 0.39 µM
CCCN(CCC)C(=O)Oc1ccc2[nH]cc(CCNCc3ccccc3)c2c1 [3l, 3-(2-(benzylamino)ethyl)-1H-indol-5-yl dipropylcarbamate] |  |  |  |  | 0.044 ± 0.00184 µM | > 100 µM | 6.31 ± 0.39 µM
CCCCN(CCCC)C(=O)Oc1ccc2[nH]cc(CCNCc3ccccc3)c2c1 [3m, 3-(2-(benzylamino)ethyl)-1H-indol-5-yl dibutylcarbamate] |  |  |  |  | 0.0974 ± 0.00853 µM | 19.8 µM | 3.87 ± 0.35 µM
O=C(Oc1ccc2[nH]cc(CCNCc3ccccc3)c2c1)N(c1ccccc1)c1ccccc1 [3n, 3-(2-(benzylamino)ethyl)-1H-indol-5-yl diphenylcarbamate] |  |  |  |  | 0.156 ± 0.00358 µM | > 100 µM | 0.54 ± 0.03 µM
CON(C)C(=O)Oc1ccc2[nH]cc(CCNCc3ccccc3)c2c1 [3o, 3-(2-(benzylamino)ethyl)-1H-indol-5-yl methoxy(methyl)carbamate] |  |  |  |  | 0.0588 ± 0.00292 µM | 2.61 µM | 50.4 ± 1.07 µM
CN(C(=O)Oc1ccc2[nH]cc(CCNCc3ccccc3)c2c1)c1ccccc1 [3p, 3-(2-(benzylamino)ethyl)-1H-indol-5-yl methyl(phenyl)carbamate] |  |  |  |  | 0.0254 ± 0.00027 µM | 7.05 µM | 11 ± 1.12 µM
O=C(Oc1ccc2[nH]cc(CCNCc3ccccc3)c2c1)N1CCC1 [3q, 3-(2-(benzylamino)ethyl)-1H-indol-5-yl azetidine-1-carboxylate] |  |  |  |  | 0.00258 ± 0.00013 µM | 0.482 ± 0.00599 µM | 57.8 ± 2.88 µM
O=C(Oc1ccc2[nH]cc(CCNCc3ccccc3)c2c1)N1CCCC1 [3r] |  |  |  |  | 0.0405 ± 0.00179 µM | 1.82 µM | 31.7 ± 1.64 µM
O=C(Oc1ccc2[nH]cc(CCNCc3ccccc3)c2c1)N1CCCCCC1 [3t, 3-(2-(benzylamino)ethyl)-1H-indol-5-yl azepane-1-carboxylate] |  |  |  |  | 0.0232 ± 0.00094 µM | > 100 µM | 11.9 ± 0.39 µM
O=C(Oc1ccc2[nH]cc(CCNCc3ccccc3)c2c1)N1CCOCC1 [3u, 3-(2-(benzylamino)ethyl)-1H-indol-5-yl morpholine-4-carboxylate] |  |  |  |  | 0.112 ± 0.00737 µM | > 100 µM | 51.3 ± 2.55 µM
CCCCCNC(=O)Oc1ccc2[nH]cc(CCN)c2c1 [4c, 3-(2-aminoethyl)-1H-indol-5-yl pentylcarbamate] |  |  |  |  | 0.121 ± 0.00838 µM | > 100 µM | > 100 µM
CCCCCCNC(=O)Oc1ccc2[nH]cc(CCN)c2c1 [4d, 3-(2-aminoethyl)-1H-indol-5-yl hexylcarbamate] |  |  |  |  | 0.0277 ± 0.00204 µM | > 100 µM | 25.2 ± 1.37 µM
